The results in this text go back to PubChem BioAssay AID1645848.

The structures appear in SMILES notation. In brackets after ≈: the same amount, converted by molar mass. Bounds are passed on as bounds.

The conditions of the data set: buffer; pH 7.4; 6.0 h; 150.0 µM.
With `CCOC(=O)N1CCc2c(sc(NCc3ccc(N(C)C)cc3)c2C(=O)Nc2ccc(OC)cc2)C1`, the solubility (kinetic) worked out at 2 µg/mL (≈ 3.93 µM). The same measure for `COc1ccc(C2=Nn3c([n+](C)c4ccccc43)SC2)cc1.[Br-]`: above 46 µg/mL.

In turn, `CC(C)(C)NS(=O)(=O)c1ccc(-c2ccc3[nH]nc(N)c3c2)cc1` registered a kinetic solubility above 51 µg/mL. Compound `Cc1ccc(-c2nnc(Nc3ccc(Br)cc3)c3ccccc23)cc1S(=O)(=O)N1CCN(C)CC1` returned a kinetic solubility below 1 µg/mL. `O=C1Nc2ccccc2/C1=C/c1cc(Cl)c(O)c(Cl)c1` had a kinetic solubility above 45 µg/mL. The compound `O=C(NCc1ccccc1)c1nc(S(=O)(=O)Cc2ccc(F)cc2)ncc1Cl` yielded a solubility (kinetic) below 1 µg/mL. The same measure for `Cc1ccccc1C(=O)N1CCc2cc(-c3ccnc(NC(=O)Cc4ccccc4)n3)ccc21`: 6.19 µg/mL (≈ 13.8 µM); for `Cc1noc(-c2cn(C3CCN(C(=O)c4ccc(OC(F)(F)F)cc4)CC3)nn2)n1`: 37.9 µg/mL (≈ 89.7 µM); for `Cc1cc(C)nc(NC(=S)N2CCN(c3ccc4nsnc4c3)CC2)c1`: 27.7 µg/mL (≈ 72.1 µM).

Turning to `O=C(COC(=O)CCC(=O)c1cccs1)NCc1ccco1`, the solubility (kinetic) was above 47 µg/mL. The same measure for `CCCCOc1ccc(C(=O)N2CCC(c3n[nH]c(=O)n3-c3ccc(C)cc3)CC2)cc1`: below 1 µg/mL; for `Cc1ccc(-c2c(CN3CCN(c4cccc(C(F)(F)F)c4)CC3)csc2C)cc1`: below 1 µg/mL.

Compound `O=[S+]([O-])(Nc1cnc2ccccc2c1)c1ccc(NCc2ccc(Cl)cc2O)cc1` gave a solubility (kinetic) below 1 µg/mL. The compound `CC(=O)c1c(C)c(C(=O)Nc2cccc([S+](=O)([O-])N(C)C)c2)n(C)c1C` gave a solubility (kinetic) of 33.2 µg/mL (≈ 88 µM). The same measure for `Cc1cccc(C)c1C(=O)Nc1cccc([S+](=O)([O-])N(C)C)c1`: 41.4 µg/mL (≈ 124 µM). On to `CC(=O)N1CCc2cc(S(=O)(=O)NCCC3=CCCCC3)ccc21`, for which the solubility (kinetic) was found to be 4.37 µg/mL (≈ 12.6 µM). The same measure for `O=C(c1ccc2c(c1)ncn2-c1cccc(Cl)c1)N1CCCCC1`: above 50 µg/mL. The same measure for `CNCc1ccc(-c2cc(-c3nc(-c4ccc(S(=O)(=O)C(C)C)cc4)cnc3N)on2)cc1`: 27.3 µg/mL (≈ 59 µM); for `Cn1nc(-c2ccccc2F)c2cc(C(=O)Nc3cc(F)ccc3F)sc21`: below 1 µg/mL; for `COc1cc(OC)c2c(=O)[nH]c(-c3cc(C)c(OCCO)c(C)c3)nc2c1`: above 55 µg/mL. `CC1CCc2ccc(F)cc2N1S(=O)(=O)c1cccs1` (centres undefined): the solubility (kinetic) was determined as 3.12 µg/mL (≈ 10 µM). The same measure for `CCCCCn1c(=O)[nH]c2cc(C(=O)NCCCN3CCCCC3)ccc2c1=O`: above 59 µg/mL; for `NCC(=O)Nc1cncc(-c2nn3c(=O)cc(N4CCNCC4)nc3s2)c1`: above 57 µg/mL; for `NC(=O)C1CCN(c2nc(-c3ccccc3Br)cs2)CC1`: above 54 µg/mL. The same measure for `CCOc1ccc(CCNC(=O)c2cc3cnccc3n2Cc2cccc(C)n2)cc1OCC`: above 68 µg/mL; for `COc1ccc(-c2cc(C(F)(F)F)nc(SCCC(=O)Nc3cc(C)ccc3O)n2)cc1`: below 1 µg/mL. Turning to `COc1cc([C@@H]2c3cc4c(cc3[C@H](O)[C@H]3COC(=O)[C@H]23)OCO4)cc(OC)c1OC`, the kinetic solubility is above 61 µg/mL. For `O=C(Nc1ccccc1O)c1ccc(NC(=O)C2CC2)cc1`, the kinetic solubility was determined as 1.75 µg/mL (≈ 5.92 µM). The same measure for `CCn1c(SCc2ccc(C#N)cc2)nnc1-c1cccc(Cl)c1`: 34.2 µg/mL (≈ 96.3 µM).

Regarding `COc1ccc(-c2nc3ccccc3s2)cc1NC(=O)c1ccc(F)cc1`, the solubility (kinetic) is below 1 µg/mL. The same measure for `c1ccc2c(NC3CCCCC3)nc(-c3ccncc3)nc2c1`: below 1 µg/mL. For the compound `CCOC(=O)N1CCN(C(=O)Cn2sc3nc(C)cc(C)c3c2=O)CC1`, the kinetic solubility turned out to be 39 µg/mL (≈ 103 µM). `N#Cc1cc(-c2nc(Nc3ccc(F)c(F)c3)c3ccccc3n2)ccn1` returned a kinetic solubility below 1 µg/mL. The same measure for `CCc1ccc(NC(=O)c2cc3ncccn3n2)cc1`: 6.75 µg/mL (≈ 25.3 µM); for `NC(=O)C1CCN(c2nc(-c3cccc4ccccc34)cs2)CC1`: 38.3 µg/mL (≈ 114 µM); for `Cc1cccc(C)c1C(=O)Nc1cccc([S+](=O)([O-])N2CCCCCC2)c1`: 2.03 µg/mL (≈ 5.26 µM). As for `O=C(NCCCc1ccccc1)C1CCN(c2nc(-c3ccc(Br)cc3)cs2)CC1`, the solubility (kinetic) is 3.28 µg/mL (≈ 6.77 µM).

In turn, `NC(=O)C1CCN(c2nc(-c3ccc4c(c3)CCO4)cs2)CC1` displayed a kinetic solubility above 49 µg/mL.

As for `N#Cc1ccccc1-c1csc(N2CCC(C(N)=O)CC2)n1`, the kinetic solubility is 36.9 µg/mL (≈ 118 µM). The same measure for `O=C(CCc1ccccc1)Nc1ccc(S(=O)(=O)Nc2nccs2)cc1`: 10.6 µg/mL (≈ 27.5 µM); for `Cn1c(=O)c2c(nc(Cl)n2Cc2ccc(Cl)cc2)n(C)c1=O`: 2.15 µg/mL (≈ 6.32 µM); for `CCN1CCC(N(Cc2ccc3c(c2)OCO3)C(=O)Nc2cc(Cl)ccc2C(=O)OC)CC1`: 58.5 µg/mL (≈ 123 µM).

The compound `CC1(C)CC2CC(C)(CN2S(=O)(=O)c2ccc(C(=O)Nc3ccc(Cl)cc3)cc2)C1` (centres undefined) had a solubility (kinetic) below 1 µg/mL.

On to `Cc1cccc(-n2c(C)cc(C=C(C#N)C#N)c2C)c1`, for which the kinetic solubility is below 1 µg/mL.

`Nc1ncnc2c1c(-c1cnc3[nH]ccc3c1)nn2C1CCCC1` gave a kinetic solubility above 47 µg/mL. `CC(=O)c1c(C)c(C(=O)Nc2cccc([S+](=O)([O-])N3CCCCCC3)c2)n(C)c1C`: the solubility (kinetic) was below 1 µg/mL. The same measure for `COc1ccc(-n2nc(C3CCCN(C(=O)c4cccc(OC)c4)C3)[nH]c2=O)cc1` (centres undefined): 22.4 µg/mL (≈ 54.8 µM).

The compound `NC(=O)C1CCN(c2nc(-c3ccc(C(F)(F)F)cc3)cs2)CC1` gave a solubility (kinetic) of 1.98 µg/mL (≈ 5.56 µM).

The compound `Cc1cccc(S(=O)(=O)c2cn(Cc3ccccc3)c3cc(N4CCCCC4C)c(F)cc3c2=O)c1` (centres undefined) gave a solubility (kinetic) below 1 µg/mL. The same measure for `CC1CCN(S(=O)(=O)c2ccc3c(ccc(=O)n3CC(=O)NCc3ccc(Cl)cc3)c2)CC1`: below 1 µg/mL; for `CC1CCC(NC(=O)c2ccc3c(c2)N(Cc2ccccc2F)C(=O)c2ccccc2S3)CC1` (centres undefined): 1.06 µg/mL (≈ 2.24 µM).

In turn, `CC/C=C\C/C=C\C/C=C\C/C=C\C/C=C\C/C=C\CCC(=O)NCCO` gave a solubility (kinetic) above 55 µg/mL. On to `CC(C)c1cc(C(=O)N2CC[C@@H](NC(=O)C3CC3)C2)n[nH]1`, for which the kinetic solubility was above 43 µg/mL.

As to `COc1cccc(-c2nc(-c3c(C)noc3C)cc3[nH]c(C)cc23)c1OC`, the solubility (kinetic) was found to be 20.4 µg/mL (≈ 56.2 µM).

`CN(c1ncccc1CNc1nc(Nc2ccc3c(c2)CC(=O)N3)ncc1C(F)(F)F)S(C)(=O)=O` yielded a solubility (kinetic) of 51.7 µg/mL (≈ 102 µM). The same measure for `CN(C)C(=O)c1cc2cnc(Nc3ccc(N4CCNCC4)cn3)nc2n1C1CCCC1`: above 64 µg/mL; for `NC(=O)C1CCN(c2nc(-c3cccs3)cs2)CC1`: above 43 µg/mL; for `CCn1c(-c2nonc2N)nc2cnc(Oc3cccc(NC(=O)c4ccc(OCCN5CCOCC5)cc4)c3)cc21`: below 1 µg/mL. In turn, `COc1ccc(-n2nc(C3CCCN(C(=O)Cc4ccc(F)cc4)C3)[nH]c2=O)cc1` (centres undefined) gave a kinetic solubility above 61 µg/mL. The same measure for `CN[C@@H](C)C(=O)N[C@@H]1C(=O)N(Cc2c(C)ccc3ccccc23)c2ccc(C#N)cc2N(C(C)=O)[C@H]1C`: above 73 µg/mL; for `COc1ccc(CN(C2CCCCC2C)S(=O)(=O)c2ccc(S(=O)(=O)N(C)C)cc2)cc1OC` (centres undefined): below 1 µg/mL. The same measure for `CNC(=O)C1CCN(c2nc(-c3ccc(Br)cc3)cs2)CC1`: 3.67 µg/mL (≈ 9.64 µM). The same measure for `CCCCOc1ccc(CC(=O)NO)cc1`: 13.6 µg/mL (≈ 60.9 µM). `Cc1cc(-c2nc(Nc3ccc(F)c(F)c3)c3ccccc3n2)ccn1` came in with a kinetic solubility below 1 µg/mL. The same measure for `Cc1ccc(N2CCN(c3cnn(-c4nc5ccccc5s4)c(=O)c3Cl)CC2C)cc1` (centres undefined): below 1 µg/mL; for `Fc1ccc(Nc2nc(-n3ccnc3)nc3ccccc23)cc1F`: below 1 µg/mL; for `Cc1sc(NC(=O)Cc2ccc3c(c2)OCO3)nc1-c1ccc2c(c1)CCN2C(=O)c1ccccc1Cl`: below 1 µg/mL. For `COc1ccc(NC(=O)c2ccc[nH]2)cc1S(=O)(=O)Nc1ccc(Br)cc1`, the solubility (kinetic) was below 1 µg/mL. The same measure for `COc1ccc(NC(=O)c2cccnc2)cc1S(=O)(=O)Nc1ccc(Br)cc1`: 33.5 µg/mL (≈ 72.5 µM).

The term solubility (kinetic) denotes the concentration staying in solution when a stock, usually in DMSO, is diluted into the medium.
